# Laboratory results published in PMC5633905, “Conformational dynamics of the essential sensor histidine kinase WalK” (Acta Crystallographica. Section D, Structural Biology, 2017).
# What was measured:
# Test in all cases: ITC
# smVicK CA (271-450) = target: T1, smVicK CA (271-450) (Streptococcus mutans, UniProt Q8DT64); type: binding
# T1 construct: gene covS
# lpWalK (370-624) = target: T2, lpWalK (370-624); type: binding, Lactiplantibacillus plantarum; conditions: 20 mM Tris-HCl pH 8.0, 5 mM MgCl2, 25 °C, fixed 1:1 model
# T2 construct: gene walK; catalytic region DHp + CA domains, residues 370-624, N-terminal His tag, pET-His, E. coli BL21(DE3); DHp homodimer
# smVicK (196-450) = target: T3, smVicK (196-450) (Streptococcus mutans, UniProt Q8DT64); type: binding
# T3 construct: gene covS; DHp + CA domains, residues 196-450, pET-His vector, expressed in E. coli and purified as lpWalK
# T3 sequence (Q8DT64 entry or part of it): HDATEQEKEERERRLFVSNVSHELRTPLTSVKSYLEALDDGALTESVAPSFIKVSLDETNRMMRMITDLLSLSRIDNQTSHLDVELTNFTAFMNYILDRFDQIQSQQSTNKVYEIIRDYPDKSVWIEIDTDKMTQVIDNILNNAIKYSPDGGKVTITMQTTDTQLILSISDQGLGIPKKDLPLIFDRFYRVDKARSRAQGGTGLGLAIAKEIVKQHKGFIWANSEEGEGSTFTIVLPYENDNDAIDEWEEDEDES
# T1 sequence (Q8DT64 entry or part of it): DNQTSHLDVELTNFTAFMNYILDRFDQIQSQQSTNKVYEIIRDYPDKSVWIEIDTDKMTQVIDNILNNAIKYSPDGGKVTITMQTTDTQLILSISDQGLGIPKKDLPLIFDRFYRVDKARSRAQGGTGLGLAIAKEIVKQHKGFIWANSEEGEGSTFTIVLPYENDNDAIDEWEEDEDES
SMILES,Kd (smVicK CA (271-450)) [µM],Kd (lpWalK (370-624); gamma-phosphate not defined in the crystal) [µM],Kd (smVicK (196-450)) [µM],Kd (lpWalK (370-624)) [µM]
Nc1ncnc2c1ncn2[C@@H]1O[C@H](COP(=O)(O)OP(=O)(O)NP(=O)(O)O)[C@@H](O)[C@H]1O [AMPPNP],292 ± 15.2,450 ± 6.36,538 ± 32,
Nc1ncnc2c1ncn2[C@@H]1O[C@H](COP(=O)(O)OP(=O)(O)O)[C@@H](O)[C@H]1O [ADP],474 ± 97.5,,701 ± 165,1200 ± 17
Nc1ncnc2c1ncn2[C@@H]1O[C@H](COP(=O)(O)O)[C@@H](O)[C@H]1O [AMP],,,,1280 ± 95.5
